Test results taken from ChEMBL document CHEMBL3832056, “DailyMed|setid=5ad109ec-1fff-498c-bc91-e2e5481122bc | RAMIPRIL- ramipril capsule|Lake Erie Medical DBA Quality Care Products LLC”.

Experiments:
Homo sapiens [1] = experiment: Pharmacokinetic parameters for Ramipril, and its active metabolite Ramiprilat evaluated after oral administration of Ramipril.; assay type: ADME, organism-based; conditions: in vivo, dosed compound id 51, dosed compound name RAMIPRIL, regimen Single dose; for F: at 5 mg
Homo sapiens [2] = experiment: Half-life of Ramiprilat, active metabolite of Ramipril, evaluated after oral administration of multiple doses of 5 mg Ramipril.; assay type: ADME, organism-based; conditions: in vivo, dose 5 to 10 mg, dosed compound id 51, dosed compound name RAMIPRIL, regimen Multiple dose, tissue Plasma

## C[C@H](N[C@@H](CCc1ccccc1)C(=O)O)C(=O)N1[C@H](C(=O)O)C[C@@H]2CCC[C@@H]21 [RAMIPRILAT]
Homo sapiens [1]; tissue Plasma
  F: 44%
  Tmax: 2 to 4 h
Homo sapiens [2]
  t1/2: 13 to 17 h

## CCOC(=O)[C@H](CCc1ccccc1)N[C@@H](C)C(=O)N1[C@H](C(=O)O)C[C@@H]2CCC[C@@H]21 [RAMIPRIL]
Homo sapiens [1]; tissue Plasma
  F: 28%
  Absorption: 50 to 60%
  Tmax: 1 h
Homo sapiens [1]; tissue Feces
  Excretion: 40%
Homo sapiens [1]; tissue Urine
  Excretion: 60%
